Data as given in publication PMC11088877, “AMP-activated protein kinase can be allosterically activated by ADP but AMP remains the key activating ligand” (Biochemical Journal, 2024).
pEC50, pIC50: −log10 of the molar value. Where “and” joins values, the source holds several entries; their conditions need not be identical. Equal entries are not always repeated.

How the values were obtained:
Assay type in all cases: biochemical
[1] = biological target: T1, human α2β2γ1 complex, CBS4 mutant (I312G) (Homo sapiens, UniProt P54619+P54646, I312G); test: Allosteric activation of CBS4 mutant human α2β2γ1 AMPK complex; settings: for Activation (maximal) / pIC50 / pEC50 / IC50/EC50: α2β2γ1 CBS4 mutant
T1 construct: made in house; host or cells: Escherichia coli
Excerpt: To study allosteric activation with a more well-defined AMPK complex, and to study the effects of mutations in individual adenine nucleotide-binding sites on the γ subunit, we expressed a human α2β2γ1 complex in Escherichia coli and purified it utilizing the polyhistidine tag at the N-terminus of the α2 subunit. […] However, it had not been co-expressed with an N-myristoyl transferase so would not have been N-myristoylated on the β2 subunit. The complex was expressed not only with the WT γ1 sequence but also with mutations affecting hydrophobic residues previously shown to be involved in binding of the adenine moieties of nucleotides at CBS1 (L129D/V130D), CBS3 (V276G/L277G) and CBS4 (I312G). All four complexes co-purified as heterotrimeric 1:1:1 complexes as expected, and were phosphorylated and activated equally well either by CaMKK2 or the LKB1: STRADα:MO25α complex (Supplementary Figure S2). For the studies described below we phosphorylated Thr172 using a GST-tagged CaMKK2 and repurified AMPK using size exclusion chromatography and a glutathione-Sepharose column, which remove CaMKK2.
Figure 4. Allosteric activation of WT and mutant human α2β2γ1 AMPK complex by AMP and ADP at three different concentrations of ATP. The α2β2γ1 complex was phosphorylated on Thr172 prior to assay using CaMKK2. The γ1 subunit was either (A/E): WT; (B/F): a CBS1 mutant (L129D/V130D); (C/G): a CBS3 mutant (V276G/L277G); (D/H): a CBS4 mutant (I312G). Results are means of duplicate assays ± SD; error bars are not shown if they were smaller than the symbols used for mean values. Assays and curve fitting were as in Figure 1 at either 0.2 mM (left panels) or 5 mM (right panels) ATP. Best-fit values for all parameters used to generate the curves are listed in Supplementary Table S1.
Sources of antibodies were as described: pThr172 (AMPK-α: Cell Signaling Technologies, Danvers, MA, U.S.A., Cat# 2535), AMPK-α2 [22]. Rat liver AMPK was purified as described previously. Plasmid encoding human (His)6-tagged AMPK (α2β2γ1, bacterially expressed) generated as in [23], was a gift from AstraZeneca, Cambridge, U.K. The L129D/V130D (CBS1), V276G/L277G (CBS3) and I312G (CBS4) mutations in the α2β2γ1 complex were generated using the Quikchange II site-directed mutagenesis kit (Agilent Technologies) and confirmed by DNA sequencing. Human GST-tagged α2 kinase domain (1–310), LKB1:STRAD-α:MO25-α complexes, GST-tagged CaMKK2 [26], and PPM1A (PP2Cα) were produced as described. Bacterially expressed heterotrimers were activated by phosphorylation of Thr172 by GST-tagged CaMKK2 in the presence of ATP, and CaMKK2 was subsequently removed by passage through glutathione-Sepharose. Human GST-tagged α2 kinase domain was activated in a similar manner except that human (His)6-tagged LKB1:STRAD-α:MO25-α complex was used and removed after activation via passage through a His-Trap column. Recombinant human 5′-nucleotidase, CD73, Cat # 5795-EN-01, was from R&D systems (Minneapolis, MN, U.S.A.).
AMPK assays measured the transfer of radioactivity from [γ-^33P]ATP to a peptide substrate, which was separated from unreacted ATP by binding to P81 paper. This assay was described previously except that we used [γ-^33P] rather than [γ-^32P]ATP. In some assays (specified in Figure legends) the concentration of ATP was increased from 0.2 to 1 or 5 mM ATP, with MgCl2 concentrations maintained at a constant 4.8 mM excess above the concentration of ATP [19]. Where allosteric activation by AMP or ADP was being studied, we used the SAMS peptide as substrate. For all other assays the AMARA peptide was used.

[2] = biological target: T2, unphosphorylated human α2β2γ1 complex (WT) (Homo sapiens, UniProt P54619+P54646); test: AMPK activation and Thr172 phosphorylation by the LKB1:STRADα:MO25α complex, WT; settings: 300 µM nucleotide, 200 µM Mg.ATP2−
T2 construct: made in house; host or cells: Escherichia coli
Procedure: (§1) The relative roles of the three CBS sites in the other two mechanisms of activation of AMPK by AMP or ADP, i.e. promotion of Thr172 phosphorylation by LKB1, and protection against Thr172 dephosphorylation by protein phosphatases, have not been examined previously. As expected, incubation of the α2β2γ1 AMPK complex with a fixed, limiting amount of purified LKB1:STRADα:MO25α complex in the presence of 200 µM Mg.ATP^2− caused a large degree of activation (Figure 5A) and phosphorylation (Figure 5B) of AMPK (unphosphorylated α2β2γ1 complex), which were stimulated more than 2-fold by 300 µM AMP and 1.6-fold by 300 µM ADP.
(§2) Figure 5. Effects of AMP or ADP on AMPK activation and Thr172 phosphorylation by the LKB1:STRADα:MO25α complex. Unphosphorylated human α2β2γ1 complexes (WT, or with L129D/V130D, V276G/L277G or I312G mutations affecting CBS1, CBS3 or CBS4 respectively) were incubated with ATP and a fixed concentration of the LKB1:STRADα:MO25α complex in the presence or absence of AMP or ADP (both 300 µM), as described in the Materials and methods section. After the incubation aliquots were withdrawn for (A) AMPK assay or (B) Western blots. […] For (B), due to a limit on the number of lanes that could be run on one gel, single replicates from the triplicate assays were analysed. […]

[3] = biological target: T3, human α2β2γ1 complex, CBS1 mutant (L129D/V130D) (Homo sapiens, UniProt P54619+P54646, L129D/V130D); test: AMPK activation and Thr172 phosphorylation by the LKB1 complex, CBS1 mutant; settings: 300 µM nucleotide, 200 µM ATP
T3 construct: made in house; host or cells: Escherichia coli
Procedure: as §1, §2

T1 sequence (P54619 whole entry I312G): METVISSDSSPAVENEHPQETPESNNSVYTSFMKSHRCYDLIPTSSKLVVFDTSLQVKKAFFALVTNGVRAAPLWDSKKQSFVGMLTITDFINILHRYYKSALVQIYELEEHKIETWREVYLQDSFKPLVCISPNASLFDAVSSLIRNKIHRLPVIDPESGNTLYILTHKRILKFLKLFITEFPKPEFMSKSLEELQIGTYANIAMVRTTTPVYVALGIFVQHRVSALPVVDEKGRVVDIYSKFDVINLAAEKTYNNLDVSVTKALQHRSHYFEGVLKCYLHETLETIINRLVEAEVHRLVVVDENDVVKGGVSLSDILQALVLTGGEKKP
T1 sequence (P54646 whole entry): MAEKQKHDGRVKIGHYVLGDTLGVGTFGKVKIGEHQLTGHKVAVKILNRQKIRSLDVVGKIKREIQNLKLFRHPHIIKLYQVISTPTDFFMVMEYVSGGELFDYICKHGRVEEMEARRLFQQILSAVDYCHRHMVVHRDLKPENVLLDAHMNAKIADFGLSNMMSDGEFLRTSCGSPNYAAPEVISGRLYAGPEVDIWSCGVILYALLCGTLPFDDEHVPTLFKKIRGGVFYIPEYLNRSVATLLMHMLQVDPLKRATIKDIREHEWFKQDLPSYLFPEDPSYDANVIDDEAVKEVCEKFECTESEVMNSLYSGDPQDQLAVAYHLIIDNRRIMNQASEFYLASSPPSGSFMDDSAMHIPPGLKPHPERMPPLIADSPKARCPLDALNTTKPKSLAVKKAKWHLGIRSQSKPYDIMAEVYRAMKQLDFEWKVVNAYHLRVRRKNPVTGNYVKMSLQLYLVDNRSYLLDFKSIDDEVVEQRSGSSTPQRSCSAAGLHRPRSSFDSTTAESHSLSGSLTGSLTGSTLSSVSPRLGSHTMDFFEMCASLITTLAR
T1 sequence (O43741 whole entry partner): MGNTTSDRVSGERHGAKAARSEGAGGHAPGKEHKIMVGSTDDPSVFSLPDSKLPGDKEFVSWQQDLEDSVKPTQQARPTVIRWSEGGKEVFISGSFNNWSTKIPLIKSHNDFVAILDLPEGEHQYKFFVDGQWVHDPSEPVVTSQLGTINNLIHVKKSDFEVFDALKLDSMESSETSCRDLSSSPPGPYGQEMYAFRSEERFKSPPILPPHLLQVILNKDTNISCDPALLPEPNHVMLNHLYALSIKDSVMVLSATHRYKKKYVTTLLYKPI
T3 sequence (P54619 whole entry L129D/V130D): as the sequence (P54619 whole entry I312G) above, with L129D, V130D, G312I counted along it
T3 sequence (P54646 whole entry): as the sequence (P54646 whole entry) above
T3 sequence (O43741 whole entry partner): as the sequence (O43741 whole entry partner) above
T2 sequence (P54619 whole entry): as the sequence (P54619 whole entry I312G) above, with G312I counted along it
T2 sequence (P54646 whole entry): as the sequence (P54646 whole entry) above
T2 sequence (O43741 whole entry partner): as the sequence (O43741 whole entry partner) above

SMILES | Activation (maximal) ([1]; 0.2 mM ATP) | pIC50 ([1]; 0.2 mM ATP) | Activation (maximal) ([1]; 5.0 mM ATP) | pIC50 ([1]; 5.0 mM ATP) | stimulation of activation and phosphorylation of AMPK by LKB1:STRADα:MO25α complex [2] | effect of nucleotide on activation/phosphorylation by LKB1 in the mutant [3] | increase of EC50 for activation relative to WT ([1]; α2β2γ1 CBS4 mutant vs WT, 0.2 mM ATP) | increase of EC50 relative to WT ([1]; α2β2γ1 CBS4 mutant vs WT, 5 mM ATP) | pEC50 ([1]; 0.2 mM ATP) | IC50/EC50 ([1]; 0.2 mM ATP) | pEC50 ([1]; 5.0 mM ATP) | IC50/EC50 ([1]; 5.0 mM ATP)
Nc1ncnc2c1ncn2[C@@H]1O[C@H](COP(=O)(O)OP(=O)(O)O)[C@@H](O)[C@H]1O [ADP] | did not cause allosteric activation and none | 3.11 | essentially abolished allosteric activation and none | 1.51 | 1.6 fold | unaffected |  |  |  |  |  | 
Nc1ncnc2c1ncn2[C@@H]1O[C@H](COP(=O)(O)O)[C@@H](O)[C@H]1O [AMP] | 2.1 fold and 2.1 (2.0-2.1) fold | 2.48 | 2.0- to 2.5 fold and 2.1 (1.9-2.4) fold | 1.55 | more than 2 fold | unaffected | 40 fold | 10- to 20 fold | 4.42 | 87 | 3.55 | 100
